Results reported in patent US9777309B2, “High throughput assay for monitoring AMP production and aminoacyl-tRNA synthetase activity” (Board of Supervisors of Louisiana State University and …, priority 2014, dated 2017).

What was measured:
[1] = biological target: G. stearothermophilus tyrosyl-tRNA synthetase (Geobacillus stearothermophilus, UniProt P00952); assay: Tyrosyl-tRNA synthetase assay with tRNA recycling (AMP release coupled to NADH); conditions: for kcat: aminoacylation of tRNA^Tyr by the named tyrosine isomer, 10 mM MgATP
Chain of G. stearothermophilus tyrosyl-tRNA synthetase (P00952 whole entry): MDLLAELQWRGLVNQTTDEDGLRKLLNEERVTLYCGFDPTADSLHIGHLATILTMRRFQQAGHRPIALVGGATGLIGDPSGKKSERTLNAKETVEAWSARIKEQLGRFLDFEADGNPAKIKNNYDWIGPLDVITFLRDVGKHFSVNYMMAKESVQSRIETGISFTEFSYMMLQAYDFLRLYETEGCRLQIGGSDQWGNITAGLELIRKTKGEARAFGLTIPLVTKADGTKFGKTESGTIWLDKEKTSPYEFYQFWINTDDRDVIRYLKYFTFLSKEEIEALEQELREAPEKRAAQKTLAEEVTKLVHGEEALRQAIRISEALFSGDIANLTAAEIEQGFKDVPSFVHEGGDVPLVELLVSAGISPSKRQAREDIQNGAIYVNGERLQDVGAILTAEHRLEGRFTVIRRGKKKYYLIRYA
Protocol: The pH of all stock solutions was adjusted to 7.0 prior to use. All kinetic assays were performed in 96 well microtiter plates at 25° C. using either 100 or 200 μl of assay mix per well. Under these conditions, the path lengths are 0.28 and 0.56 cm, respectively. The reaction rate for formation of the L-Tyr-tRNA^TYr product was determined by monitoring the increase in absorbance at 340 nm associated with the conversion of NAD^+ to NADH using a BioTek Synergy 4 plate reader (ε340=6220 M^−1 cm^−1).
Initial rates for each substrate concentration were determined from a linear fit of the data (A340 vs. time). Km and Vmax values were determined by fitting a plot of the initial rate vs. substrate concentration to the Michaelis-Menten equation, the same equations (1) and (2) above:
[formula] where vo is the initial rate of the reaction and [S] is the substrate concentration. kcat values were calculated from the equation: Vmax=kcat[E]

IMP dehydrogenase = IMP dehydrogenase (Saccharomyces cerevisiae, UniProt P50095); format: biochemical
Chain of IMP dehydrogenase (P50095 whole entry): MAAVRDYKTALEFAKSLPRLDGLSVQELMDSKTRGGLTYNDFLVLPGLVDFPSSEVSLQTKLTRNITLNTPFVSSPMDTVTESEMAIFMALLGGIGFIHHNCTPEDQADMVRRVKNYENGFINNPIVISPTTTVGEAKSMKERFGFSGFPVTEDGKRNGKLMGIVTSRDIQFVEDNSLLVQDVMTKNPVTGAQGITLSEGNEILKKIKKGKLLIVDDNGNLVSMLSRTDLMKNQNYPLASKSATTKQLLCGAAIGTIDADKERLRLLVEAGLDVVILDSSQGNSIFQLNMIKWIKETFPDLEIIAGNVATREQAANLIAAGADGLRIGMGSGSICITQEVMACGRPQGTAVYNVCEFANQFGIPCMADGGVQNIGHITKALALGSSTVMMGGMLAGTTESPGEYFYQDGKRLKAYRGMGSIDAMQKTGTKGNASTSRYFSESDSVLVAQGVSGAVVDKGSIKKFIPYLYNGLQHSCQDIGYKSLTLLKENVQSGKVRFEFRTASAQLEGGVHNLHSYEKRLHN

Structure (SMILES) | kcat [1] | Km^D-Tyr lower than Kd^D-Tyr determined by single turnover kinetics ([1]; single turnover assay was in the absence of tRNA^Tyr) | Km (IMP dehydrogenase; 50 mM TRIS pH 7.2, 25° C., other substrate at 5 mM, standard error in parenthesis) | affinity higher than for the C. albicans IMP dehydrogenase homolog (IMP dehydrogenase; S. cerevisiae vs Candida albicans enzyme)
N[C@H](Cc1ccc(O)cc1)C(=O)O [D-Tyrosine, D-tyrosine] | 0.32 (±0.08) s^−1 | 8 fold | – | –
N[C@@H](Cc1ccc(O)cc1)C(=O)O [L-Tyrosine, L-tyrosine] | 2.8 (±0.6) s^−1 | – | – | –
NC(=O)c1ccc[n+]([C@@H]2O[C@H](COP(=O)([O-])OP(=O)(O)OC[C@H]3O[C@@H](n4cnc5c(N)ncnc54)[C@H](O)[C@@H]3O)[C@@H](O)[C@H]2O)c1 [NAD^+] | – | – | 800 µM | 4 fold
